# Data: PubChem BioAssay (NCI)
# Where “and” joins values, the source holds several entries; their conditions need not be identical. Identical values can stand only once.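 Growth conditions: 96-well plates. Treatment: test compound, 48 hours, 5 concentrations. Analysis: linear interpolation between bracketing concentrations; unreached endpoints set to highest concentration. Abbreviation: GI50, concentration required for 50% inhibition of growth. TGI: concentration producing complete growth inhibition.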
# Assays:
# Assay in all cases: NCI-60 cell line screen, 48 h
# RXF 393 renal = test system: RXF 393 renal
# IGROV1 ovarian = test system: IGROV1 ovarian
# MDA-MB-435 = test system: MDA-MB-435
# HT29 colon = test system: HT29 colon
# DU-145 prostate = test system: DU-145 prostate
# KM12 colon = test system: KM12 colon
# RPMI-8226 leukemia = test system: RPMI-8226 leukemia
# SK-OV-3 ovarian = test system: SK-OV-3 ovarian
# UO-31 renal = test system: UO-31 renal
# T-47D breast = test system: T-47D breast
# NCI-H522 lung = test system: NCI-H522 lung
# OVCAR-3 ovarian = test system: OVCAR-3 ovarian
# 786-0 renal = test system: 786-0 renal
# MDA-MB-231 breast = test system: MDA-MB-231 breast
# LOX IMVI melanoma = test system: LOX IMVI melanoma
# OVCAR-4 ovarian = test system: OVCAR-4 ovarian
# SF-539 CNS = test system: SF-539 CNS
# OVCAR-5 ovarian = test system: OVCAR-5 ovarian
# PC-3 prostate = test system: PC-3 prostate
# NCI-H460 lung = test system: NCI-H460 lung
# HCC-2998 colon = test system: HCC-2998 colon
# BT-549 breast = test system: BT-549 breast
# OVCAR-8 ovarian = test system: OVCAR-8 ovarian
# COLO 205 colon = test system: COLO 205 colon
# SK-MEL-28 melanoma = test system: SK-MEL-28 melanoma
# HOP-92 NSCLC = test system: HOP-92 NSCLC
# UACC-62 melanoma = test system: UACC-62 melanoma
# NCI-H226 lung = test system: NCI-H226 lung
# HOP-62 NSCLC = test system: HOP-62 NSCLC
# SW-620 colon = test system: SW-620 colon
# MOLT-4 leukemia = test system: MOLT-4 leukemia
# M14 melanoma = test system: M14 melanoma
# CAKI-1 renal = test system: CAKI-1 renal
# SF-295 CNS = test system: SF-295 CNS
# SR leukemia = test system: SR leukemia
# HS 578T breast = test system: HS 578T breast
# MCF7 breast = test system: MCF7 breast
# SNB-19 CNS = test system: SNB-19 CNS
# TK-10 renal = test system: TK-10 renal
# UACC-257 melanoma = test system: UACC-257 melanoma
# U251 CNS = test system: U251 CNS
# SNB-75 CNS = test system: SNB-75 CNS
# EKVX NSCLC = test system: EKVX NSCLC
# NCI/ADR-RES ovarian = test system: NCI/ADR-RES ovarian
# SN12C renal = test system: SN12C renal
# A549 NSCLC = test system: A549 NSCLC
# A498 renal = test system: A498 renal
# SK-MEL-2 melanoma = test system: SK-MEL-2 melanoma
# ACHN renal = test system: ACHN renal
# SF-268 CNS = test system: SF-268 CNS
# HCT-116 colon = test system: HCT-116 colon
# NCI-H23 lung = test system: NCI-H23 lung
# HCT-15 colon = test system: HCT-15 colon
# MALME-3M melanoma = test system: MALME-3M melanoma
compound,measurement,setting,value
CCOC(=O)C(Cc1c[nH]c2cc([N+](=O)[O-])ccc12)(NC(C)=O)C(=O)OCC,GI50,RXF 393 renal,58.6 µM
same,TGI,RXF 393 renal,133 µM
same,GI50,IGROV1 ovarian,176 µM
same,TGI,IGROV1 ovarian,> 1 mM
same,GI50,MDA-MB-435,> 649 µM
same,TGI,MDA-MB-435,> 1 mM
same,GI50,HT29 colon,> 1 mM
same,TGI,HT29 colon,> 1 mM
same,GI50,DU-145 prostate,> 542 µM
same,TGI,DU-145 prostate,> 1 mM
same,GI50,KM12 colon,> 1 mM
same,TGI,KM12 colon,> 1 mM
same,GI50,RPMI-8226 leukemia,45 µM
same,GI50,SK-OV-3 ovarian,184 µM
same,TGI,SK-OV-3 ovarian,> 1 mM
same,GI50,UO-31 renal,43.4 µM and 188 µM
same,TGI,UO-31 renal,> 1 mM
same,GI50,T-47D breast,40.7 µM and 105 µM
same,TGI,T-47D breast,> 1 mM
same,TGI,NCI-H522 lung,> 1 mM
same,GI50,OVCAR-3 ovarian,> 1 mM
same,TGI,OVCAR-3 ovarian,> 1 mM
same,GI50,786-0 renal,175 µM
same,TGI,786-0 renal,> 754 µM
same,GI50,MDA-MB-231 breast,167 µM
same,TGI,MDA-MB-231 breast,> 715 µM
same,GI50,LOX IMVI melanoma,> 766 µM
same,TGI,LOX IMVI melanoma,> 1 mM
same,GI50,OVCAR-4 ovarian,> 1 mM
same,TGI,OVCAR-4 ovarian,> 1 mM
same,GI50,SF-539 CNS,68.3 µM and 84.2 µM
same,TGI,SF-539 CNS,330 µM
same,GI50,OVCAR-5 ovarian,> 833 µM
same,TGI,OVCAR-5 ovarian,> 1 mM
same,TGI,PC-3 prostate,> 1 mM
same,TGI,NCI-H460 lung,> 1 mM
same,GI50,HCC-2998 colon,> 1 mM
same,TGI,HCC-2998 colon,> 1 mM
same,GI50,BT-549 breast,64.9 µM and 75 µM
same,TGI,BT-549 breast,> 682 µM
same,GI50,OVCAR-8 ovarian,30.3 µM and 104 µM
same,TGI,OVCAR-8 ovarian,> 1 mM
same,GI50,COLO 205 colon,> 1 mM
same,TGI,COLO 205 colon,> 1 mM
same,GI50,SK-MEL-28 melanoma,> 1 mM
same,TGI,SK-MEL-28 melanoma,> 1 mM
same,GI50,HOP-92 NSCLC,47.5 µM
same,TGI,HOP-92 NSCLC,141 µM
same,TGI,UACC-62 melanoma,> 1 mM
same,GI50,NCI-H226 lung,> 769 µM
same,TGI,NCI-H226 lung,> 1 mM
same,GI50,HOP-62 NSCLC,161 µM
same,TGI,HOP-62 NSCLC,461 µM
same,GI50,SW-620 colon,> 1 mM
same,TGI,SW-620 colon,> 1 mM
same,GI50,MOLT-4 leukemia,35.2 µM
same,GI50,M14 melanoma,> 931 µM
same,GI50,CAKI-1 renal,190 µM
same,TGI,CAKI-1 renal,> 1 mM
same,GI50,SF-295 CNS,57.9 µM and 56.9 µM
same,TGI,SF-295 CNS,> 478 µM
same,GI50,SR leukemia,26.3 µM
same,TGI,SR leukemia,446 µM
same,GI50,HS 578T breast,61.3 µM
same,TGI,HS 578T breast,> 798 µM
same,TGI,MCF7 breast,> 1 mM
same,GI50,SNB-19 CNS,148 µM
same,TGI,SNB-19 CNS,> 824 µM
same,GI50,TK-10 renal,296 µM
same,TGI,TK-10 renal,> 760 µM
same,TGI,UACC-257 melanoma,> 1 mM
same,GI50,U251 CNS,104 µM
same,TGI,U251 CNS,> 693 µM
same,GI50,SNB-75 CNS,93.5 µM and 46.8 µM
same,TGI,SNB-75 CNS,114 µM
same,GI50,EKVX NSCLC,59 µM
same,TGI,EKVX NSCLC,> 614 µM
same,GI50,NCI/ADR-RES ovarian,92.2 µM and 331 µM
same,TGI,NCI/ADR-RES ovarian,> 1 mM
same,GI50,SN12C renal,401 µM
same,TGI,SN12C renal,> 1 mM
same,TGI,A549 NSCLC,> 1 mM
same,GI50,A498 renal,55.3 µM
same,TGI,A498 renal,203 µM
same,GI50,SK-MEL-2 melanoma,36 µM and 168 µM
same,TGI,SK-MEL-2 melanoma,97.9 µM and 401 µM
same,GI50,ACHN renal,178 µM
same,TGI,ACHN renal,> 1 mM
same,GI50,SF-268 CNS,95.1 µM
same,TGI,SF-268 CNS,> 1 mM
same,GI50,HCT-116 colon,390 µM
same,TGI,HCT-116 colon,> 1 mM
same,GI50,NCI-H23 lung,138 µM
same,TGI,NCI-H23 lung,> 1 mM
same,GI50,HCT-15 colon,> 1 mM
same,TGI,HCT-15 colon,> 1 mM
same,GI50,MALME-3M melanoma,171 µM
same,TGI,MALME-3M melanoma,> 1 mM
